Earlier results as cited in patent US20240180994A1 (priority 2021, published 2024).

Assays:
[1] = biological target: SARS-CoV-2 protease 3CL pro (Severe acute respiratory syndrome coronavirus 2, UniProt P0DTD1)
[2] = test system: HIV-luc/SARS pseudotyped virus; conditions: read-out: effective dose at 50% of inhibition (EC50%)
cathepsin L = cathepsin L (Homo sapiens, UniProt P07711)
[3] = biological target: SARS-CoV-2 membrane (M) protein (Severe acute respiratory syndrome coronavirus 2, UniProt P0DTC5); conditions: modeling studies
TNF-α, IL-6 and IL-1β = conditions: daily oral 10-30 mg/kg for 4 weeks, aged rats
TNF-α = conditions: mouse, in vivo
[4] = test system: TNF-α, IL-1β, MAPKs (p38); conditions: 100 mg/kg, spinal cord injury models

O=c1c(O)c(-c2ccc(O)cc2)oc2cc(O)cc(O)c12 [Kaempferol]
IC50 [1]: 116 µM

O=c1cc(-c2ccc(O)c(O)c2)oc2cc(O)cc(O)c12 [Luteolin]
EC50 [2]: 9.02 µM | EC50 (wild-type SARS-CoV; read-out: EC50% inhibition of cytopathic effect, wild-type SARS-CoV, MTT assay): 10.6 µM | EC50 values times less than cytotoxicity on the cells in vitro (wild-type SARS-CoV; relates to both EC50 values of luteolin): 15 times

O=c1c(O)c(-c2ccc(O)c(O)c2)oc2cc(O)cc(O)c12 [Quercetin]
cathepsin L inhibition (cathepsin L): inhibit cathepsin L

O=C(O)/C=C/c1ccc(O)c(O)c1 [caffeic acid]
affinity with M protein [3]: higher affinity with the M protein

CC(/C=C/C=C(\C)C(=O)O[C@@H]1O[C@H](CO[C@@H]2O[C@H](CO)[C@@H](O)[C@H](O)[C@H]2O)[C@@H](O)[C@H](O)[C@H]1O)=C\C=C\C=C(C)\C=C\C=C(/C)C(=O)O[C@@H]1O[C@H](CO[C@@H]2O[C@H](CO)[C@@H](O)[C@H](O)[C@H]2O)[C@@H](O)[C@H](O)[C@H]1O [crocin]
pro-inflammatory cytokines in renal tissue and serum (TNF-α, IL-6 and IL-1β): significantly reduced pro-inflammatory cytokines, TNF-α, IL-6 and IL-1β

COc1cc(/C=C/C(=O)O)ccc1O [ferulic acid]
affinity with M protein [3]: higher affinity with the M protein

COc1ccc([C@@H]2CC(=O)c3c(O)cc(O[C@@H]4O[C@H](CO[C@@H]5O[C@@H](C)[C@H](O)[C@@H](O)[C@H]5O)[C@@H](O)[C@H](O)[C@H]4O)cc3O2)cc1O [hesperidin]
TNF-α in LPS-treated mice (TNF-α): decease TNF-α in mice treated with LPS

CC1=C(C=O)C(C)(C)CC=C1 [safranal]
expression of inflammatory cytokines [4]: decreased the expression of the inflammatory cytokines TNF-α, IL-1β
